This is an account of results in patent US12180226B2, “Spirotricycle RIPK1 inhibitors and methods of uses thereof” (Merck Sharp & Dohme LLC, priority 2021, dated 2024).

Counter-ions that a name gives are not always drawn.

One may read the EC50 as the concentration that produces a half-maximal response.

Chain of RIPK1 (recombinant GST-RIPK1 kinase domain, residues 1-327) (Q13546 1-327): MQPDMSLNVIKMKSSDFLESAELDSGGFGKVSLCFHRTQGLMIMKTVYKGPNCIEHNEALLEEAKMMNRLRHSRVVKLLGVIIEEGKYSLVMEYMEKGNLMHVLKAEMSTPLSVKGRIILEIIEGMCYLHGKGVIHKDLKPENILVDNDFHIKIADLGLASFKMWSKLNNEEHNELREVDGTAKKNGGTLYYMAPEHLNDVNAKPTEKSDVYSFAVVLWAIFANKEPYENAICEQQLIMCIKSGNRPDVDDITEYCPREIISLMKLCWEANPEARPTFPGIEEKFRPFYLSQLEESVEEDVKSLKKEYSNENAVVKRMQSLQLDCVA

The target in the test is RIPK1 (recombinant GST-RIPK1 kinase domain, residues 1-327) (Homo sapiens (Human), UniProt Q13546). Kind of test: RIPK1-ADP-Glo Enzymatic Assay. Type of test: biochemical. The following applies: ADP-Glo; 25 nM GST-RIPK1, 300 μM ATP; assay lower limit ~25 nM; read-out: RIPK1 V0 Ec50. In outline:
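Enzyme from baculovirus-infected Sf21 cells, 25 nM final, was pre-incubated 30 min at ambient temperature with compound (ten-point, 1:3 dilution from 100000 nM, 1% DMSO), then reacted 150 min with 300 μM ATP and 3 μM dephosphorylated MBP. ADP was read by luminescence; EC50 from four-parameter fit.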
Background: ADP-Glo turns the ADP formed in a reaction into a luminescent signal.
With `N#Cc1cnc(N2CCC3(CC2)S[C@@H]2CC[C@@H](c4ccccc4)N2C3=O)n2ncnc12` [Example 4.146, 5-[(5′S,7a′R)-3′-oxo-5′-phenyltetrahydro-1H,3′H-spiro[piperidine-4,2′-pyrrolo[2,1-b] [1,3]thiazol]-1-yl] [1,2,4]triazolo[1,5-c] pyrimidine-8-carbonitrile], the EC50 is less than 25 nM.
Regarding `O=C(c1ccnc(C(F)(F)F)c1F)N1CCC2(CC1)O[C@@H]1CC[C@@H](c3cc(F)cc(F)c3)N1C2=O` [Example 6.74, (5′S,7a′R)-5′-(3,5-difluorophenyl)-1-[3-fluoro-2-(trifluoro-methyl)pyridine-4-carbonyl]tetrahydro-3′H-spiro[piperidine-4,2′-pyrrolo[2,1-b] [1,3]oxazol]-3′-one], the EC50 stood at 31.9 nM.
Consider `CC1CN(c2ccnc3ccnn23)CCC12O[C@@H]1CC[C@@H](c3ccccc3)N1C2=O` (stereo partly drawn) [Example 4.246, (4R,5′S,7a′R)-3-methyl-5′-phenyl-1-(pyrazolo[1,5-a]pyrimidin-7-yl)tetrahydro-3′H-spiro[piperidine-4,2′-pyrrolo[2,1-b] [1,3]oxazol]-3′-one], for which the EC50 was less than 25 nM.
In the case of `Cc1nc(N2CCC3(CC2)O[C@@H]2CC[C@@H](c4cccc(F)c4)N2C3=O)ccc1C#N` [Example 4.77, 6-[(5′S,7a′R)-5′-(3-fluorophenyl)-3′-oxotetrahydro-1H,3′H-spiro[piperidine-4,2′-pyrrolo[2,1-b] [1,3]oxazol]-1-yl]-2-methylpyridine-3-carbonitrile], the EC50 is less than 25 nM.
As for `N#Cc1cc(F)cc([C@@H]2CC[C@H]3OC4(CCN(c5ccnc6c(F)cnn56)CC4)C(=O)N32)c1` [Example 4.121, 3-fluoro-5-[(5′S,7a′R)-1-(3-fluoropyrazolo[1,5-a]pyrimidin-7-yl)-3′-oxotetrahydro-3′H-spiro[piperidine-4,2′-pyrrolo[2,1-b] [1,3]oxazol]-5′-yl]benzonitrile], the EC50 is less than 25 nM.
Regarding `N#Cc1ccc(N2CC3(C2)O[C@@H]2CC[C@@H](c4ccccc4)N2C3=O)n2ncnc12` [Example 13.23, 5-((5′S,′7a′R)-3′-oxo-5′-phenyltetrahydro-3′H-spiro[azetidine-3,2′-pyrrolo[2,1-b]oxazol]-1-yl)-[1,2,4]triazolo[1,5-a]pyridine-8-carbonitrile, TFA salt], the EC50 turned out to be 54.3 nM.
Consider `O=C(c1ccccc1)N1CCC2(CC1)O[C@@H]1CC[C@@H](c3cncc(F)c3)N1C2=O` [Example 1.4, (5′S,7a′R)-1-(benzenecarbonyl)-5′-(5-fluoropyridin-3-yl)tetrahydro-3′H-spiro[piperidine-4,2′-pyrrolo[2,1-b] [1,3]oxazol]-3′-one], for which the EC50 is 121 nM.
Consider `O=C1N2[C@@H](CC[C@H]2c2ccccc2F)OC12CN(c1cccc3ncnn13)C2` [Example 13.20, (5′S,7a′R)-1-([1,2,4]triazolo[1,5-a]pyridin-5-yl)-5′-(2-fluorophenyl)tetrahydro-3′H-spiro[azetidine-3,2′-pyrrolo[2,1-b]oxazol]-3′-one, TFA salt], for which the EC50 was 24.9 nM.
In the case of `Cc1ccn(-c2cccc(N3CCC4(CC3)O[C@@H]3CC[C@@H](c5ccccc5)N3C4=O)n2)n1` [Example 4.263, (5′S,7a′R)-1-[6-(3-methyl-1H-pyrazol-1-yl)pyridin-2-yl]-5′-phenyltetrahydro-3′H-spiro[piperidine-4,2′-pyrrolo[2,1-b] [1,3]oxazol]-3′-one], the EC50 came out at 26.2 nM.
`COc1cccc(C(=O)N2CCC3(CC2)O[C@@H]2CC[C@@H](c4cc(F)cc(F)c4)N2C3=O)c1F` [Example 6.7, (5′S,7a′R)-5′-(3,5-difluorophenyl)-1-(2-fluoro-3-methoxy-benzene-1-carbonyl) tetrahydro-3′H-spiro [piperidine-4,2′-pyrrolo[2,1-b][1,3]oxazol]-3′-one]: the EC50 was less than 25 nM.
In the case of `O=C1N2[C@@H](CC[C@H]2c2ccccc2)OC12CCN(c1ncc(-c3ncco3)c(C(F)(F)F)n1)CC2` [Example 21.2, (5′S,7a′R)-1-[5-(1,3-oxazol-2-yl)-4-(trifluoromethyl)pyrimidin-2-yl]-5′-phenyltetrahydro-3′H-spiro[piperidine-4,2′-pyrrolo[2,1-b][1,3]oxazol]-3′-one], the EC50 was less than 25 nM.
In the case of `COc1cccc([C@@H]2CC[C@H]3OC4(CCN(C(=O)c5ccccc5)CC4)C(=O)N32)n1` [Example 17.5, (5′S,7a′R)-1-benzoyl-5′-(6-methoxypyridin-2-yl)tetrahydro-3′H-spiro[piperidine-4,2′-pyrrolo[2,1-b]oxazol]-3′-one, TFA salt], the EC50 came to 344 nM.
In the case of `Cc1ccc(C(=O)N2CCC3(CC2)O[C@@H]2CC[C@@H](c4ccccc4)N2C3=O)c(F)c1` [Example 6.152, (5′S,7a′R)-1-(2-fluoro-4-methylbenzene-1-carbonyl)-5′-phenyl-tetrahydro-3′H-spiro [piperidine-4,2′-pyrrolo[2,1-b][1,3]oxazol]-3′-one], the EC50 was less than 25 nM.
Regarding `N#Cc1cc(N2CCC3(O[C@@H]4CC[C@@H](c5ccccc5)N4C3=O)C(F)C2)ncn1` (single isomer, unassigned) [Example 4.95, 6-((3[S or R],4[R or S], 5′S,7a′R)-3-fluoro-3′-oxo-5′-phenyltetrahydro-3′H-spiro[piperidine-4,2′-pyrrolo[2,1-b]oxazol]-1-yl)pyrimidine-4-carbonitrile], the EC50 was 58.3 nM.
Consider `N#Cc1ccccc1CN1CCC2(CC1)O[C@@H]1CC[C@@H](c3cc(F)cc(F)c3)N1C2=O` [Example 22.3, 2-{[(5′S,7a′R)-5′-(3,5-difluorophenyl)-3′-oxotetrahydro-1H,3′H-spiro[piperidine-4,2′-pyrrolo[2,1-b][1,3]oxazol]-1-yl]methyl}benzonitrile], for which the EC50 was determined as 807 nM.
Next, `O=C1N2[C@@H](CC[C@H]2c2ccccc2)OC12CCN(c1cnc(-c3ncco3)cn1)CC2` [Example 21.14, (5′S,7a′R)-1-[5-(1,3-oxazol-2-yl)pyrazin-2-yl]-5′-phenyltetrahydro-3′H-spiro[piperidine-4,2′-pyrrolo[2,1-b][1,3]oxazol]-3′-one]: 57.8 nM.
Turning to `O=C1N2[C@@H](CC[C@H]2c2cc(F)cc(F)c2)OC12CCN(c1ncc(F)c3ncnn13)CC2` [Example 4.90, (5′S,7a′R)-5′-(3,5-difluorophenyl)-1-(8-fluoro-[1,2,4]triazolo [1,5-c]pyrimidin-5-yl)tetrahydro-3′H-spiro[piperidine-4,2′-pyrrolo[2,1-b]oxazol]-3′-one, TFA salt], the EC50 stood at 380 nM.
Turning to `COc1cncc(C(=O)N2CCC3(CC2)O[C@@H]2CC[C@@H](c4cc(F)cc(F)c4)N2C3=O)n1` [Example 6.41, (5′S,7a′R)-5′-(3,5-difluorophenyl)-1-(6-methoxypyrazine-2-carbonyl)tetrahydro-3′H-spiro[piperidine-4,2′-pyrrolo[2,1-b] [1,3]-oxazol]-3′-one], the EC50 came to 131 nM.
For the compound `Cc1nc(N2CCC3(CC2)OC2CCC(c4cnccn4)N2C3=O)ccc1C#N` (centres unmarked) [Example 4.142, 2-methyl-6-[3′-oxo-5′-(pyrazin-2-yl)tetrahydro-1H,3′H-spiro[piperidine-4,2′-pyrrolo[2,1-b] [1,3]oxazol]-1-yl]pyridine-3-carbonitrile], the EC50 was less than 25 nM.
The figure for `O=C1N2[C@@H](CC[C@H]2c2ccccc2F)OC12CN(c1ccnc3ccnn13)C2` [Example 4.108, (5′S,7a′R)-5′-(2-fluorophenyl)-1-(pyrazolo[1,5-a]pyrimidin-7-yl)tetrahydro-3′H-spiro[azetidine-3,2′-pyrrolo[2,1-b]oxazol]-3′-one] is 26.9 nM; for `O=C1N2[C@@H](CC[C@H]2c2cc(F)cc(F)c2)OC12CCN(c1nccn3nccc13)CC2` [Example 13.12, (5′S,7a′R)-5′-(3,5-difluorophenyl)-1-(pyrazolo[1,5-a]pyrazin-4-yl)tetrahydro-3′H-spiro[piperidine-4,2′-pyrrolo[2,1-b]oxazol]-3′-one, TFA salt] it is less than 25 nM; for `O=C1N2[C@@H](CC[C@H]2c2ccccc2)OC12CCN(c1ncc(-c3nccs3)cn1)CC2` [Example 21.12, (5′S,7a′R)-5′-phenyl-1-[5-(1,3-thiazol-2-yl)pyrimidin-2-yl]tetrahydro-3′H-spiro[piperidine-4,2′-pyrrolo[2,1-b][1,3]oxazol]-3′-one] it is 25.2 nM.
For `O=C1N2[C@@H](CC[C@H]2c2cc(F)cc(F)c2)OC12CCN(c1ncc(F)cn1)CC2` [Example 4.67, (5′S,7a′R)-5′-(3,5-difluorophenyl)-1-(5-fluoropyrimidin-2-yl)tetrahydro-3′H-spiro[piperidine-4,2′-pyrrolo[2,1-b] [1,3]oxazol]-3′-one], the EC50 is 89.2 nM.
Take `O=C(c1cccc(F)c1)N1CCC2(CC1)O[C@@H]1CC[C@@H](c3ccccc3)N1C2=O` [Example 6.154, (5′S,7a′R)-1-(3-fluoro-benzene-1-carbonyl)-5′-phenyltetrahydro-3′H-spiro[piperidine-4,2′-pyrrolo[2,1-b] [1,3]oxazol]-3′-one]: the concentration for a half-maximal effect (EC50) is less than 25 nM.
As to `Cn1cnc(-c2ccc(N3CCC4(CC3)O[C@@H]3CC[C@@H](c5ccccc5)N3C4=O)n3ncnc23)c1` [Example 21.21, (5′S,7a′R)-1-[8-(1-methyl-1H-imidazol-4-yl)[1,2,4]triazolo[1,5-a]pyridin-5-yl]-5′-phenyltetrahydro-3′H-spiro[piperidine-4,2′-pyrrolo[2,1-b][l,3]oxazol]-3′-one], the EC50 is less than 25 nM.
Take `CC1CC2(CCN1c1ccnc3c(F)cnn13)O[C@@H]1CC[C@@H](c3ccccc3)N1C2=O` (stereo partly drawn) [Example 4.225, (4R,5′S,7a′R)-1-(3-fluoropyrazolo[1,5-a]pyrimidin-7-yl)-2-methyl-5′-phenyltetrahydro-3′H-spiro[piperidine-4,2′-pyrrolo[2,1-b] [1,3]oxazol]-3′-one]: the EC50 was 31.8 nM.
